Patent US11447466B2, “Substituted indole compounds useful as inhibitors of TLR7/8/9” (BRISTOL-MYERS SQUIBB COMPANY, priority 2017, dated 2022)

Assays:
Type in all cases: cell-based
human TLR7 = target: T1, human TLR7 (Homo sapiens, UniProt Q9NYK1); assay: TLR7 inhibition reporter assay (HEK-Blue SEAP reporter, gardiquimod stimulation); settings: HEK-Blue cells overexpressing human TLR7, SEAP reporter, gardiquimod 7.5 μM, 22 hour incubation
T1 construct: host or cells: HEK-Blue cells
T1 sequence (Q9NYK1 27-1049): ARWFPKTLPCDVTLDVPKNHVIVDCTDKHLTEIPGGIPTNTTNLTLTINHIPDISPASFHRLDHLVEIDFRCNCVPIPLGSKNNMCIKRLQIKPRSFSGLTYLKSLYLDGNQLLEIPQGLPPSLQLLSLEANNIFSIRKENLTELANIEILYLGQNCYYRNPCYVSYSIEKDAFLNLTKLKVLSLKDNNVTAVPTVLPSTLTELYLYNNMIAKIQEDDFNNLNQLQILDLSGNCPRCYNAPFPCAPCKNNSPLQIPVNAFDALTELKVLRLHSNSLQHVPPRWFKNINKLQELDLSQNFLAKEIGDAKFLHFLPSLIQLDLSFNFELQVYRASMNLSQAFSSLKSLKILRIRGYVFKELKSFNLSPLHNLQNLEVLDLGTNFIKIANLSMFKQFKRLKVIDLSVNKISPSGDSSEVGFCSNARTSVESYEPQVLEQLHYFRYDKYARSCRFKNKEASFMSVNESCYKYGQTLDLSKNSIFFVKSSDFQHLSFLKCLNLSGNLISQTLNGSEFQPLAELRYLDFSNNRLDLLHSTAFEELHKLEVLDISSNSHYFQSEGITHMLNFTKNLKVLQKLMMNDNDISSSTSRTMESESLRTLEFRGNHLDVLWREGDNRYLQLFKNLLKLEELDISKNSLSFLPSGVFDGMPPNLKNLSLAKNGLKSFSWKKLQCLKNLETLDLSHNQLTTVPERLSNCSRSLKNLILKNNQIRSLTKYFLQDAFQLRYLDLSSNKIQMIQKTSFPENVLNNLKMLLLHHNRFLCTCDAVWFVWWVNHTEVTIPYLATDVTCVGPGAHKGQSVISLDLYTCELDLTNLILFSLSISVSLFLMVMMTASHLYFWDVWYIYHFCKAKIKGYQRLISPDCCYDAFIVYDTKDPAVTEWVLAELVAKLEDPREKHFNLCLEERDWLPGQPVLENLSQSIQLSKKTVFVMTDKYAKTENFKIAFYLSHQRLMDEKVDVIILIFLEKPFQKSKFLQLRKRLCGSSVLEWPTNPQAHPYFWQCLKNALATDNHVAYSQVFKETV
Summary of the method: (§1)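 Compound treatment: 30 min, RT, 0.05 nM–50 μM final. Agonist: TLR7 gardiquimod 7.5 μM; TLR8 R848 15.9 μM; TLR9 ODN2006 5 nM. Incubation 22 h, 37 °C, 5% CO2. Readout SEAP, HEK-Blue Detection.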

human TLR9 = target: T2, human TLR9 (Homo sapiens, UniProt Q9NR96); assay: TLR9 inhibition reporter assay (HEK-Blue SEAP reporter, ODN2006 stimulation); settings: HEK-Blue cells overexpressing human TLR9, SEAP reporter, ODN2006 5 nM, 22 hour incubation
T2 construct: host or cells: HEK-Blue cells
T2 sequence (Q9NR96 26-1032): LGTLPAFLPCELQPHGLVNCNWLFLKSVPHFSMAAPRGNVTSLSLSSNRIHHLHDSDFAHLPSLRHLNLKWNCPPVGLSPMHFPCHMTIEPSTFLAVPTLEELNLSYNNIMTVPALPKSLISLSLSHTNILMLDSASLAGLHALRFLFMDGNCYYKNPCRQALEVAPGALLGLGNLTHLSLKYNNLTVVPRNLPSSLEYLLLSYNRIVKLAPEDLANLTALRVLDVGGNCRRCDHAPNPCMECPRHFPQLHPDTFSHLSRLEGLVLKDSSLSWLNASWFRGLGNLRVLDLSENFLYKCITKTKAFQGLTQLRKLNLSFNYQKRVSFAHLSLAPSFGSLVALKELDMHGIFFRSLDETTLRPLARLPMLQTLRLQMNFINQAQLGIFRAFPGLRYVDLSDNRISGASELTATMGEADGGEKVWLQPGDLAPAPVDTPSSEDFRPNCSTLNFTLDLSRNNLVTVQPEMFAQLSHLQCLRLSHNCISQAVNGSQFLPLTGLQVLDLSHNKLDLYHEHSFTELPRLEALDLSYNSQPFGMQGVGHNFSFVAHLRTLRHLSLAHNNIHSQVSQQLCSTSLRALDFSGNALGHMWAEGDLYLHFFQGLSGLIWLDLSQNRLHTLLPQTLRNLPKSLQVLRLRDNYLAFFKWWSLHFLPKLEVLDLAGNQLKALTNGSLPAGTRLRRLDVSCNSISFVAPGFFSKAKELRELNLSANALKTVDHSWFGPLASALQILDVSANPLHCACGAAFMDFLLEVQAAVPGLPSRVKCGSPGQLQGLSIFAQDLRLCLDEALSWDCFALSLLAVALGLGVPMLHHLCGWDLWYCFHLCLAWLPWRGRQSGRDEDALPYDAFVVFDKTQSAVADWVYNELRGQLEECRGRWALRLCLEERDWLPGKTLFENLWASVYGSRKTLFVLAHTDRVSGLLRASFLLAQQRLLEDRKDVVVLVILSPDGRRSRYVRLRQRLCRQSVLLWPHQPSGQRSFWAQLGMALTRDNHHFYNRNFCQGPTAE
Summary of the method: as §1

human TLR8 = target: T3, human TLR8 (Homo sapiens, UniProt Q9NR97); assay: TLR8 inhibition reporter assay (HEK-Blue SEAP reporter, R848 stimulation); settings: HEK-Blue cells overexpressing human TLR8, SEAP reporter, R848 15.9 μM, 22 hour incubation
T3 construct: host or cells: HEK-Blue cells
T3 sequence (Q9NR97 27-1041): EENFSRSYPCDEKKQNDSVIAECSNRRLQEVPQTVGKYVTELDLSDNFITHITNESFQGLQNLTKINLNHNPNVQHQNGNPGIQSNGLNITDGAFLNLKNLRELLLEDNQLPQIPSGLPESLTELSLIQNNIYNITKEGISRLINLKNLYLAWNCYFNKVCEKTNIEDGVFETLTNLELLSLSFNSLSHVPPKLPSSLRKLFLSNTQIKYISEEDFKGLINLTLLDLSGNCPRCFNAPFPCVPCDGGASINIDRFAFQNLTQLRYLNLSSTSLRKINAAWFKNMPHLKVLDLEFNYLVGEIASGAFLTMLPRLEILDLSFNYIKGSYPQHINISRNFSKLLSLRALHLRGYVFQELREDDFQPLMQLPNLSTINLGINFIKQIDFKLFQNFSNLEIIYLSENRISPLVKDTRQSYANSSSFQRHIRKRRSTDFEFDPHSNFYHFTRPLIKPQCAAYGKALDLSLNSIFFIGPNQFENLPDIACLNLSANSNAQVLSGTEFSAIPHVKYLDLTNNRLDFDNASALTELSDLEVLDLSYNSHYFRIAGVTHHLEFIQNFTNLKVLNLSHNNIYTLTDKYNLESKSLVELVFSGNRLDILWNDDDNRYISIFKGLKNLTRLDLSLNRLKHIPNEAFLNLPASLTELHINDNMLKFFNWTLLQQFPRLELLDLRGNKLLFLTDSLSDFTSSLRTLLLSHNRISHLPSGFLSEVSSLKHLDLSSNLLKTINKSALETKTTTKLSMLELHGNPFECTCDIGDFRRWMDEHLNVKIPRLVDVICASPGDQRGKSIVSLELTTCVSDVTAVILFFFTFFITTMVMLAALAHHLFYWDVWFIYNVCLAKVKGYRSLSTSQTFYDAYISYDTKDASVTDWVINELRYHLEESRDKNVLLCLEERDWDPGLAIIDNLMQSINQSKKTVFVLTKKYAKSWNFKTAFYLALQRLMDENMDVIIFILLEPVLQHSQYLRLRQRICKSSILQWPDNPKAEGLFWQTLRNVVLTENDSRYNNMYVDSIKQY
Summary of the method: as §1

Compound | IC50 (human TLR7) [nM] | IC50 (human TLR9) [nM] | IC50 (human TLR8) [nM]
CC(C)c1c(-c2ccc(=O)n(CC(C)(C)O)c2)[nH]c2ccc(C3CCNCC3)cc12 [Example 48, 1-(2-hydroxy-2-methylpropyl)-5-(3-isopropyl-5-(piperidin-4-yl)-1H-indol-2-yl)pyridin-2(1H)-one] | 13900 | 1270 | ≥ 50000
CNCCN1CCC(c2ccc3[nH]c(-c4cc(C)c(=O)n(C)c4)c(C(C)C)c3c2)CC1 [Example 176, 5-(3-isopropyl-5-(1-(2-(methylamino)ethyl)piperidin-4-yl)-1H-indol-2-yl)-1,3-dimethylpyridin-2(1H)-one] | 1.3 | 177 | 1.3
Cc1c(-c2[nH]c3ccc(C4CCN(CC(=O)N(C)C)CC4)cc3c2C(C)C)cn(C)c(=O)c1C#N [Example 147, 2-(4-(2-(5-cyano-1,4-dimethyl-6-oxo-1,6-dihydropyridin-3-yl)-3-isopropyl-1H-indol-5-yl)piperidin-1-yl)-N,N-dimethylacetamide] | 56.3 | 5020 | 4.8
Cc1cc(-c2[nH]c3ccc(C4CCN(C(=O)CN(C)C)CC4)cc3c2C(C)C)cn(CC(C)C)c1=O [Example 285, 5-(5-(1-(dimethylglycyl)piperidin-4-yl)-3-isopropyl-1H-indol-2-yl)-1-isobutyl-3-methylpyridin-2(1H)-one] | 14.6 | 3410 | 99.1
Cc1nn(C)cc1CN1CCC(c2ccc3[nH]c(-c4cc(C)c(=O)n(C)c4)c(C(C)C)c3c2)CC1 [Example 232, 5-(5-(1-((1,3-dimethyl-1H-pyrazol-4-yl)methyl)piperidin-4-yl)-3-isopropyl-1H-indol-2-yl)-1,3-dimethylpyridin-2(1H)-one] | 2.9 | 6010 | 1.1
CC(C)c1c(-c2ccc(=O)n(C)c2)[nH]c2ccc(C3CCN(C(=O)CN(C)C)CC3)cc12 [Example 301, 5-(5-(1-(dimethylglycyl)piperidin-4-yl)-3-isopropyl-1H-indol-2-yl)-1-methylpyridin-2(1H)-one] | 25.7 | 1830 | 36.5
CCCN1CCC(c2ccc3[nH]c(-c4cc(-c5cncnc5)c(=O)n(C)c4)c(C(C)C)c3c2F)CC1 [Example 258, 5-(4-fluoro-3-isopropyl-5-(1-propylpiperidin-4-yl)-1H-indol-2-yl)-1-methyl-3-(pyrimidin-5-yl)pyridin-2(1H)-one] | 4.5 | 832 | 1.1
Cc1cc(-c2[nH]c3ccc(C4CCN(CCN5C(=O)CCC5=O)CC4)cc3c2C(C)C)cn(C)c1=O [Example 84, 1-(2-(4-(2-(1,5-dimethyl-6-oxo-1,6-dihydropyridin-3-yl)-3-isopropyl-1H-indol-5-yl)piperidin-1-yl)ethyl)pyrrolidine-2,5-dione] | 44.3 | ≥ 50000 | 73.6
Cc1cc(-c2[nH]c3ccc(C4CCN(CC5CC5(F)F)CC4)cc3c2C(C)C)cn(C)c1=O (stereo not drawn) [Example 83, 5-(5-(1-((2,2-difluorocyclopropyl)methyl)piperidin-4-yl)-3-isopropyl-1H-indol-2-yl)-1,3-dimethylpyridin-2(1H)-one] | 3.9 | 7140 | 1.2
CC(C)c1c(-c2cc(C#N)c(=O)n(C)c2)[nH]c2ccc(C3CCNCC3)cc12 [Example 47, 5-(3-isopropyl-5-(piperidin-4-yl)-1H-indol-2-yl)-1-methyl-2-oxo-1,2-dihydropyridine-3-carbonitrile] | 31.9 | 1890 | 41.1
Cc1cc(-c2[nH]c3ccc(C4CCN(C(C)(C)C(N)=O)CC4)cc3c2C(C)C)cn(C)c1=O [Example 151, 2-(4-(2-(1,5-dimethyl-6-oxo-1,6-dihydropyridin-3-yl)-3-isopropyl-1H-indol-5-yl)piperidin-1-yl)-2-methylpropanamide] | 1.2 | 11000 | 13.7
